Experimental data reported in patent US10744106B2, “Reversibly protected thiolated electrophilic fatty acids as prodrugs” (University of Pittsburgh—Of the Commonwealth System of …, priority 2016, dated 2020).

How the values were obtained:
Format in all cases: cell-based, murine
[1] = system: glutamate-cysteine ligase modifier subunit (GCLM); assay: Nrf2-dependent GCLM transcription in RAW264.7 cells (qPCR, Taqman); details: for GCLM transcription, fold vs controls / GCLM mRNA levels, fold: RAW264.7; for GCLM mRNA levels, fold: 16 hours
Description: (§1) Murine macrophage cells (RAW264.7) were treated with the purified thiolated NO2—OA for 4 hours. RNA was extracted using the Trizol method, quantified using nanodrop technology, reversed transcribed into cDNA and then quantitative PCR was performed using Taqman assays. […] The concentration of 50 μM OA-NO2—Sx induced a similar Nrf2 activation profile for HO-1, NQO-1 and GCLM (18.0-, 6.8- and 6.3-fold, respectively) as 5 μM OA-NO2 (23.5-, 7.7-, 6.8-fold for HO-1, NQO1 and GCLM, respectively) at the 4 hour time point.
(§2) Experimental details: In every experiment, RAW264.7 cells were treated with 7.5, 15, 50 and 100 μM OA-NO2—Sx, 5 μM OA-NO2 two concentrations of methanol (MeOH) to match the lowest and highest amount of vehicle (5 and 100 μM) and a media control only. Within each experiment, there were two or three biological replicates per treatment group. After treatment, RNA was extracted using the Trizol method, quantified using nanodrop technology, reversed transcribed into cDNA and then quantitative PCR (qPCR) was performed using Taqman assays. In each qPCR experiment, there were two technical replicates per sample of RNA. The two technical replicates were then averaged for each biological replicate. The bars in the graph represent mean±standard error of the mean (SEM) of the biological replicates.
(§3) Murine macrophage cells (RAW264.7) were treated with 50 μM OA-NO2—Sx, 5 μM OA-NO2, MeOH (the highest amount of vehicle added to RAW cells to match the highest concentration, which is 50 μM for OA-NO2—Sx) and media alone for 4, 8, 16 and 24 hours. RNA was extracted at each time point using the Trizol method, quantified using nanodrop technology, reversed transcribed into cDNA and then quantitative PCR was performed using Taqman assays. […] There was a similar trend for GCLM mRNA levels (FIG. 7) remained elevated for OA-NO2—Sx (30.0-fold) compared to 1.7-fold for 5 μM OA-NO2 treatment at 16 hours.
(§4) Experimental details: Murine macrophage cells (RAW264.7) were treated with 50 μM OA-NO2—Sx, 5 μM OA-NO2, MeOH (the highest amount of vehicle added to RAW cells to match the highest concentration, which is 50 μM for OA-NO2—Sx) and media alone for 4, 8, 16 and 24 hours. RNA was extracted at each time point using the Trizol method, quantified using nanodrop technology, reversed transcribed into cDNA and then quantitative PCR for HO-1, NQO-1 and GCLM (multiplexed with actin) was performed using Taqman assays. Within each independent experiment, every treatment had at least two biological replicates at each time point. The data represents two independent experiments as mean±SEM.

[2] = system: heme oxygenase 1 (HO-1); assay: Nrf2-dependent HO-1 transcription in RAW264.7 cells (qPCR, Taqman); details: for HO-1 steady-state mRNA levels, fold vs media and vehicle controls: 8 hours (maximum)
Description: as §1, §2, §3, §4

[3] = system: NAD(P)H dehydrogenase quinone 1 (NQO-1); assay: Nrf2-dependent NQO-1 transcription in RAW264.7 cells (qPCR, Taqman); details: for NQO-1 transcription, fold vs controls / NQO-1 mRNA levels, fold: RAW264.7
Description: as §1, §2, §3, §4

[4] = 7.5, 15, 50 and 100 μM, 4 hours, compared to controls

| Molecule | GCLM transcription, fold vs controls ([1]; 50 μM OA-NO2—Sx, 4 hours) [fold] | GCLM mRNA levels, fold ([1]; 50 μM) [fold] | Nrf2-dependent transcription of GCLM, dose response [1, 4] | HO-1 transcription, fold vs controls ([2]; 50 μM OA-NO2—Sx, 4 hours, RAW264.7) [fold] | HO-1 steady-state mRNA levels, fold vs media and vehicle controls ([2]; 50 μM, RAW264.7) [fold] | HO-1 mRNA levels, fold ([2]; 50 μM, 16 hours, RAW264.7) [fold] | HO-1 mRNA levels ([2]; 50 μM, 24 hours, RAW264.7) | Nrf2-dependent transcription of HO-1, dose response [2, 4] | NQO-1 transcription, fold vs controls ([3]; 50 μM OA-NO2—Sx, 4 hours) [fold] | NQO-1 mRNA levels, fold ([3]; 50 μM, 16 hours) [fold] | Nrf2-dependent transcription of NQO-1, dose response [3, 4] | GCLM transcription, fold vs controls ([1]; 5 μM OA-NO2, 4 hours) [fold] | GCLM mRNA levels, fold ([1]; 5 μM) [fold] | HO-1 transcription, fold vs controls ([2]; 5 μM OA-NO2, 4 hours, RAW264.7) [fold] | HO-1 steady-state mRNA levels, fold vs media and vehicle controls ([2]; 5 μM, RAW264.7) [fold] | HO-1 mRNA levels ([2]; 5 μM, 16 hours, RAW264.7) | HO-1 mRNA levels ([2]; 5 μM, 24 hours, RAW264.7) | NQO-1 transcription, fold vs controls ([3]; 5 μM OA-NO2, 4 hours) [fold] | NQO-1 mRNA levels, fold ([3]; 5 μM, 8 hours) [fold] | NQO-1 mRNA levels, fold ([3]; 5 μM, 16 hours) [fold] |
| --- | --- | --- | --- | --- | --- | --- | --- | --- | --- | --- | --- | --- | --- | --- | --- | --- | --- | --- | --- | --- |
| CCCCCCCCC(SC(CCCCCCCC)C(CCCCCCCC(=O)O)[N+](=O)[O-])C(CCCCCCCC(=O)O)[N+](=O)[O-] (centres unmarked) [OA-NO2—Sx, thiolated nitro-oleic acid] | 6.3 | 30.0 | dose-dependent increase | 18.0 | 116.5 | 7.5 | returned to basal levels | dose-dependent increase | 6.8 | 701.1 | dose-dependent increase | – | – | – | – | – | – | – | – | – |
| Nitro-oleic acid [OA-NO2, reference compound] | – | – | – | – | – | – | – | – | – | – | – | 6.8 | 1.7 | 23.5 | 30.7 | returned to baseline | returned to basal levels | 7.7 | 115.0 | 98.9 |
